Experimental data reported in patent publication US11419921B2, “Methods of treating neurological disorders” (EnClear Therapies, Inc., priority 2018, dated 2022).

Assays:
(GR)10 [1] = assay: (GR)10 digestion with immobilized proteases in human cerebrospinal fluid (CSF); assay type: biochemical; conditions: immobilized enzyme
Experimental: (§1) Protease solutions were prepared at 2 mg/mL in sterile PBS with calcium, magnesium and 200 μL ([…]) were applied to 100 μL of pre-washed NHS-activated agarose resin in 0.8 mL centrifuge columns. Reactions were left 1.5 hour at room temperature with end-to-end mixing, after which resins were washed with 12 resin volumes of PBS. Unreacted sites were blocked with 500 μL of 1M ethanolamine for 15 minutes at room temperature and resins were further washed with 24 resin volumes. Resins were stored at 4 degrees in 500 μL of PBS containing 0.05% sodium azide as preservative.
200 μM of (GR)10 were diluted in human cerebrospinal fluid (CSF) and 400 μL were applied to each immobilized proteases. The reaction was incubated 5 minutes at room temperature with end-to-end mixing. Columns were spun down 1 minute at 1,000 Xg to recover digested GR dipeptides. Columns were washed with 12 resin volumes of PBS. The procedure was repeated with 60 minutes digestion time. 100 μL of each samples were transferred to a clean tube, flash-frozen and subsequently used for LC/MS quantification of GR repeats of different lengths. The remaining 300 μL of each samples were flash-frozen and used to assess neuron toxicity.
(GR)10 was digested with exemplary immobilized enzymes as described above in the subsection titled “(GR)10 digestion with immobilized proteases in CSF” of Example 3. Clostripain experiments were conducted with and without DTT activation (no DTT during digestion). The results obtained after 5 and 60 minutes of reaction time are presented in Table 25 and shown in FIG. 5 (commercial and in-house immobilized trypsin), FIG. 6 (immobilized elastase, FIG. 7A (immobilized clostripain without DTT) and FIG. 7 (immobilized clostripain with 2.5 mM DTT).

(GR)10 [2] = assay: (GR)10 digestion with immobilized proteases (NHS-activated agarose resin) in PBS; assay type: biochemical; conditions: normalized
Experimental: as §1
110 μL of 50 μM (GR)10 dipeptide repeats prepared in PBS were added to each immobilized protease and incubated 5 minutes at room temperature with end-to-end mixing. Columns were spun down 1 minute at 1,000 Xg to recover digested GR dipeptides. Columns were washed with 110 μL of PBS to increase (GR)10 recovery. This procedure was repeated with 60 minutes digestion time. 100 μL of each samples were transferred to a new tube and 5 μL of 10% TFA followed by 300 μL of Dilution Solution were added. The reaction mixtures were analyzed by LC/MS to determine the concentration of GR repeats of different lengths.

[3] = resin wash from 60 min reaction

Elastase: protease that cleaves at the carboxyl side of small hydrophobic amino acids; in Table 22 also immobilized on agarose resin
18.5 µM: (GR)1 ((GR)10 [2]; [3])
4.8 µM: (GR)2 ((GR)10 [2]; Immobilized - 5 min reaction)
10.5 µM: (GR)5 (normalized uM) ((GR)10 [1]; 5 min reaction)
0.0 µM: (GR)6 (normalized uM) ((GR)10 [1]; 5 min reaction) | (GR)8 (normalized uM) ((GR)10 [1]; 5 min reaction) | (GR)10 (normalized uM) ((GR)10 [1]; 5 min reaction) | (GR)3 (normalized uM) ((GR)10 [1]; 60 min reaction) | (GR)4 (normalized uM) ((GR)10 [1]; 60 min reaction) | (GR)5 (normalized uM) ((GR)10 [1]; 60 min reaction) | (GR)6 (normalized uM) ((GR)10 [1]; 60 min reaction) | (GR)8 (normalized uM) ((GR)10 [1]; 60 min reaction) | (GR)10 (normalized uM) ((GR)10 [1]; 60 min reaction) | (GR)3 ((GR)10 [2]; Immobilized - 5 min reaction) | (GR)4 ((GR)10 [2]; Immobilized - 5 min reaction) | (GR)5 ((GR)10 [2]; Immobilized - 5 min reaction) | (GR)6 ((GR)10 [2]; Immobilized - 5 min reaction) | (GR)8 ((GR)10 [2]; Immobilized - 5 min reaction) | (GR)10 ((GR)10 [2]; Immobilized - 5 min reaction) | (GR)2 ((GR)10 [2]; immobilized - 60 min reaction) | (GR)3 ((GR)10 [2]; immobilized - 60 min reaction) | (GR)4 ((GR)10 [2]; immobilized - 60 min reaction) | (GR)5 ((GR)10 [2]; immobilized - 60 min reaction) | (GR)6 ((GR)10 [2]; immobilized - 60 min reaction) | (GR)8 ((GR)10 [2]; immobilized - 60 min reaction) | (GR)10 ((GR)10 [2]; immobilized - 60 min reaction) | (GR)2 ((GR)10 [2]; resin wash from 5 min reaction) | (GR)3 ((GR)10 [2]; resin wash from 5 min reaction) | (GR)4 ((GR)10 [2]; resin wash from 5 min reaction) | (GR)5 ((GR)10 [2]; resin wash from 5 min reaction) | (GR)6 ((GR)10 [2]; resin wash from 5 min reaction) | (GR)8 ((GR)10 [2]; resin wash from 5 min reaction) | (GR)10 ((GR)10 [2]; resin wash from 5 min reaction) | (GR)2 ((GR)10 [2]; [3]) | (GR)3 ((GR)10 [2]; [3]) | (GR)4 ((GR)10 [2]; [3]) | (GR)5 ((GR)10 [2]; [3]) | (GR)6 ((GR)10 [2]; [3]) | (GR)8 ((GR)10 [2]; [3]) | (GR)10 ((GR)10 [2]; [3])
20.7 µM: (GR)3 (normalized uM) ((GR)10 [1]; 5 min reaction)
200.3 µM: (GR)1 (normalized uM) ((GR)10 [1]; 60 min reaction)
6 µM: (GR)2 (normalized uM) ((GR)10 [1]; 60 min reaction)
29.4 µM: (GR)2 (normalized uM) ((GR)10 [1]; 5 min reaction)
33.1 µM: (GR)1 ((GR)10 [2]; Immobilized - 5 min reaction)
13.8 µM: (GR)1 ((GR)10 [2]; resin wash from 5 min reaction)
48.1 µM: (GR)1 ((GR)10 [2]; immobilized - 60 min reaction)
57.4 µM: (GR)1 (normalized uM) ((GR)10 [1]; 5 min reaction)
22 µM: (GR)4 (normalized uM) ((GR)10 [1]; 5 min reaction)
